Patent US6662039B2, “Optical probing of neuronal connections with fluorescent indicators” (The Trustees of Columbia University in the City of New York, priority 1999, dated 2003)

System: neurons in visual cortex brain slices
Experiment: Optical probing of cortical brain slices made more excitable by channel/receptor blockers
Assay type: cell-based, mouse
Conditions: for effect on number of possible postsynaptic targets (follower cells): bath application to fura-2 AM loaded mouse cortical slice, trigger cell stimulated; for epileptiform events in imaged neurons: most or all imaged neurons show action-potential induced increases in [Ca2+]i
Excerpt: This method consist of (i) loading (staining) populations of neurons in brain slices with fluorescent indicators such as fura-2 AM and (ii) imaging dozens of loaded cells during whole-cell stimulation of a particular neuron (the “trigger” cell). On-line analysis is used to determine if any other neurons (the “follower” cells) show a calcium transient time-locked to the firing of the “trigger” cell. After detection, a chosen “follower” cell is patched and a similar experiment is repeated. Histological processing is carried out on the fixed specimens. A detailed explanation of the experiment and some representative results follows.
Brain slices are made from the primary visual cortex of postnatal day (PND) 12-23 C57BL6 mice. Mice are anesthetized with Ketamine/Xylazine (120 mg/kg, 10 mg/kg respectively). Animals are decapitated and the brain is quickly removed and placed into cold ACSF (126 mM NaCl, 3 mM KCl, 26 mM NaHCO3, 1 mM NaH2PO4, 2 mM CaCl2, 2 mM MgSO4, 10 mM Dextrose, bubbled with 95% O2/5% CO2). Coronal slices, 300-400 μm thick, are cut using a vibratome (TPI) and are incubated at 35° C. for 30 minutes in a submerged slice chamber. Slices are then incubated at room temperature (˜25° C.) for up to 12 hours.
After loading, slices are placed in a submerged recording chamber mounted on the stage of an upright microscope (BX50WI, Olympus). All experiments are done at room temperature. Fluorescent images of fura-2 loaded neurons are taken with a cCCD camera (Micromax, Princeton Instruments) equipped with a frame transfer chip (EEV 512, Kodak) or an hexagonal photodiode array with 464 pixels (PDA, Universal Imaging). To maximize the number of imaged neurons a 20×/0.5 NA water immersion objective (Olympus) is used. Image acquisition is typically 25 msec/frame and each pixel is digitized at 12 bits. Camera images are acquired, stored and analyzed using a Macintosh 7100 (Apple Computers, Cupertino, Calif.) computer and IPLab software (Signal Analytics). Signals from the photodiodes are amplified, sampled at 1.6 KHz and analyzed using Neuroplex (Universal Imaging). For imaging of the calcium transients a 380 nm excitation, a 395 nm dichroic and a 510 emission filter (Chroma) are used. Also imaged is each neuron at the isosbestic excitation of 365 nm during every experiment to assess the approximate [Ca^2+]i and therefore monitor the health of the cells. The 365 nm images are used to estimate the intracellular concentration of fura-2, using the fluorescence of the patched cell (which has a known concentration of fura-2) as a calibration. For most neurons, after correcting for background fluorescence and focus, an intracellular concentration of indicator of approximately 40-50 μM was estimated. These values, obtained from experiments with good loading at PND 12-23, obviously depend crucially on many factors that affect loading, such as age, incubation time and health of the slices. Changes in fluorescence in multiple cells were analyzed with a program written in IPLab. The fluorescence change over time is defined as ΔF/F=(F0−F1)/(F0) and, for the analysis of the AM loaded cells fluorescence change was defined as ΔF/F=((F0−-B0)−(F1−B1))/(F0−B0), expressed in %, where F1 and B are fluorescence in the somata and background fluorescence, respectively, at any given timepoint, and F0 and B0 are fluorescence and background at the beginning of the experiment.
To maximize the effect of the stimulation of the trigger cell, different methods of enhancing synaptic release and also of making postsynaptic cells more excitable have been experimented with. Currently used is 3 mM [Ca^2+]e in our ACSF (artificial cerebrospinal fluid) because high [Ca^2+]e decreases synaptic failures and, by increasing the [Ca^2+] gradient between the inside and outside of the cell, it also produces bigger action-potential induced calcium signals. […]

| Compound | effect on number of possible postsynaptic targets (follower cells) | epileptiform events in imaged neurons |
| --- | --- | --- |
| CN1CCc2cc3c(cc2[C@H]1[C@@H]1OC(=O)c2c1ccc1c2OCO1)OCO3 [Bicuculine] | increases the number of possible postsynaptic targets | produces spontaneous or evoked epileptiform events |
| Nc1ccncc1 [4-AP] | increases the number of possible postsynaptic targets | produces spontaneous or evoked epileptiform events |
| CC[N+](CC)(CC)CC [TEA] | increases the number of possible postsynaptic targets | produces spontaneous or evoked epileptiform events |
